Assays:
[1] = tested on: Hs822t Ewing's sarcoma of bone tumor cells; experiment: Assay of cell number (MTT), Hs822t cells; type: cell-based; settings: 1-mM, seventy-two hours
Source text: Methods: Human bone marrow was collected from consenting adult patients undergoing either an elective primary proximal femoral total hip arthroplasty or elective primary distal femoral total knee arthroplasty (n=6, mean age 65) as a part of an IRB approved study. Human MSC were derived from the adherent fraction of whole bone marrow aspirates. Ewing's sarcoma tumor cells (RDES, Hs822 and Hs863) and SaOS2 osteosarcoma tumor cells were obtained from ATCC. Cells were maintained in Dulbecco's Modification of Eagle's Media (DMEM) containing 10% fetal calf serum (v/v) and 1% penicillin-streptomycin-glutamine (PSG; Cellgro, Mediatech).
Assay of Cell Number: Following the addition of 1-mM naloxone or 1-mM naltrexone, viable cell number was determined with the MTT assay. After 72-hours and 120-hours, MTT (5 mg/ml (w/v), Sigma) was added to each well, incubated for 2-hours, after which the cells lysed with 500-μl of DMSO (Sigma). MTT was measured at 570-nm and the effects of therapy on cell proliferation were determined by normalizing treated wells relative to mean values from non-treated wells: Fold change in cell number=100*[treated cells optical density/mean control optical density].

[2] = tested on: MSC cultures induced to become osteoblasts; experiment: Osteogenesis: mineral formation in MSC with osteoinduction media (alizarin red-S staining); type: cell-based, human
Source text: Methods: Human Bone Marrow was Collected from Consenting Adult Patients undergoing either an elective primary proximal femoral total hip arthroplasty or elective primary distal femoral total knee arthroplasty (n=6, mean age 65) as a part of an IRB approved study. Human MSC were derived from the adherent fraction of cells derived from each whole bone marrow aspirate collected, while the monocyte population was collected from the non-adherent fraction of the bone marrow. The monocyte fraction was enriched through sub-culture with 100-ng/mL recombinant human macrophage colony-stimulating factor (MCSF; Wyeth). In parallel experiments described below, the femurs from 3-week (n=10) and 16-week (n=20) old male mice were collected and then the bone marrow was flushed from the femur according to the following: A 21-gauge needle was inserted into the femoral intramedular canal after the removal of the proximal and distal ends of the femur. Media was then carefully passed through the proximal end of the femur, which forced the bone marrow to pass out of the bone. Finally, the bone marrow pellet was mechanically disassociated using an 18-gauge needle and then passed through a 70-μm mesh filter. These whole bone marrow aspirates were used to generate osteoclasts. Cells were maintained in Dulbecco's Modification of Eagle's Media (DMEM) containing 10% fetal calf serum (v/v) and 1% penicillin-streptomycin-glutamine (PSG; Cellgro, Mediatech). […] The responsible IACUC committee approved all of the animal studies described in this work.
Osteogenesis: Osteogenic potential in MSC was assayed by chemically inducing mineral formation. MSC from at least three human patients were seeded at 5×10^3 cells per well and allowed to become confluent and woven prior to the addition of osteo-induction media. Induction media consisted of DMEM containing 20% FCS (v/v) and 1% PSG supplemented with 25-μg/mL of acscorbic-2-phosphate (Sigma), 100-nM dexamethasone (Sigma) and the following dosing regimen of β-glycerophosphate (BGP; Sigma): 1× media change with 5-mM BGP, 1× media change with 10-mM BGP and 1× media change with 20-mM of BGP. Met5-ligand (0-, [5-μM] 2.87-, or [50-μM] 28.7-μg; Sigma), naloxone (0-, 400-fg, 400-pg, 400-ng, 400-μg; Sigma) or naltrexone (0-, 378-fg, 378-pg, 378-ng, 378-μg; Sigma) was added as follows: 1) 1×, with the first addition of osteo-induction media, 2) 2×, with the first and second addition of osteo-induction media and 3) with each post-induction media change. […] After the appearance of mineral nodules, cells were fixed with 70% ice-cold EtOH (Sigma) and then stained using 40-mM alizarin red-S (pH 4.2, Sigma). Osteogenesis experiments were repeated at least twice for each patient.

[3] = tested on: unicortical defect in mouse tibia; experiment: Unicortical defect model, direct injection, microCT; type: in vivo, C57BL/6 mice
Protocol: Unicortical Defect Model: Male 3-week old C57BL/6 mice (n=5 per treatment group) were injected with met5, naloxone or naltrexone following the creation of a unicortical defect. Briefly, a small incision (approximately 3-mm) was made just below the knee joint, located on the medial side of the tibia just below the tibial tuberosity on the tibial crest. In young animals the physeal plate is clearly visible and the drill bit was placed approximately 1-mm below this point. The drill-bit produces a unicortical defect with dimensions 300-μm diameter×1-mm depth. A Hamilton Neuros RN 10-μL syringe with a 33-gauge blunt tip needle was used to inject 2-μL of met5 (28.7-μg), naloxone (400-μg) or naltrexone (378-μg) resuspended in saline directly into the unicortical defect at a rate no faster than approximately 0.1-μL per second. The left-limb tibias served as contra-lateral surgical controls, in which animals received a unicortical defect and 2-μL of saline was injected. Mice were euthanized 5-days after surgery, hind limbs were collected and tibias were fixed for immunofluorescence, TRAP staining and OTC associated bone growth.
MicroCT Analysis of Unicortical Defects: High-resolution images of the tibia were acquired with μCT imaging system (μT40; Scanco Medical). Tibias were scanned at 45-keV with an isotropic voxel size of 12-μm. An analysis region was selected from axial sections to include the entire unicortical defect bounded by the endosteal cortical wall. The volume corrected bone volume (bone volume/total volume; By/Tv), trabecular number (TbN) and trabecular thickness (TbTh) were calculated using the Scanco software.

**Q.** What does the source list for `C=CCN1CC[C@]23c4c5ccc(O)c4O[C@H]2C(=O)CC[C@@]3(O)[C@H]1C5` [naloxone]?
**A.** Hs822t tumor cell number relative to control cultures [1]: no effect; mineral accumulation, effect against met5 ([2]; 1-mM naloxone added with 5-μM or 50-μM met5 and osteoinduction media): abrogate the anti-osteogenic effects of met5; mineral accumulation (red staining) ([2]; between 1-μM and 1-mM with osteoinduction media): substantially increased mineral accumulation; mineral accumulation ([2]; continuous dosing, with every media change): slightly depressed; mineral accumulation ([2]; double 'pulse' dose (2x), 1-mM, second 72-hours after the first): substantial increase in mineral accumulation; mineral accumulation ([2]; single 'pulse' dose (1x), 1-mM): substantial increase in mineral accumulation; increase in trabecular number (TbN) ([3]; 1-mM injected into defect): 1.2 fold; increase in bone mass (Bv/Tv) ([3]; 1-mM injected into defect, relative to control PBS or met5 treated defects): 1.53 fold; bone healing ([3]; naloxone 1-mM or met5 50-μM): increased bone healing

From patent US12258561B2, “Compositions and methods to promote bone formation and their uses including for the treatment of cancer” (THE RESEARCH FOUNDATION FOR THE STATE UNIVERSITY OF NEW YORK, priority 2014, dated 2025)
